Patent US20130157852A1, “HERBICIDAL COMPOSITION CONTAINING FLUROXYPYR AND GLYPHOSATE” (DOW AGROSCIENCES LLC, priority 2011, published 2013)

Tests used:
Type in all cases: in vivo
[1] = system: Axonopus compressus (AXOCO, tropical carpetgrass); experiment: Postemergence field weed control, AXOCO; details: 70 DAA
Protocol: (§1) Evaluation of Postemergence Herbicidal Activity of Mixtures under Field Conditions Methodology
(§2) Trial sites were located in various countries around the world, including Brazil, United States, Hungary, Indonesia and Malaysia, in non-crop and perennial tree crop plantations. Trials were conducted using normal small plot R&D trials using standard research methodology. Trial plots were between 2 to 4 meters (m) wide by 3 to 10 m long. All treatments were applied using a randomized complete block or factorial trial design with 3-4 replications per treatment. The trial sites had naturally occurring populations of weeds. The weed spectrum included, but was not limited to, scarlet pimpernel (Anagallis arvensis L., ANGAR), tropical carpetgrass (Axonopus compressus, AXOCO), Canada thistle (Cirsium arvense (L.) Scop., CIRAR), calopo (Calopogonium mucunoides, CLOMU), Bengal dayflower (Commelina benghalensis L., COMBE), field bindweed (Convolvus arvensis, CONAR), horseweed (Conyza canadensis (L.) Cronq., ERICA), kochia (Kochia scoparia (L.) Schrad., KCHSC), common mallow (Malva neglecta Wallr., MALNE), African mile-a-minute (Mikania cordata (Burm. f.) B. L., MIKCO), slender panicgrass (Ottochloa nodosa, OTTNO), paspalum (Paspalum conjugatum Bergius, PASCO), wild buckwheat (Polygonum convolvulus L., POLCO) and stinging nettle (Urtica dioica L., URTDI). […]

[2] = system: Calopogonium mucunoides (CLOMU, calopo); experiment: Postemergence field weed control, CLOMU; details: 70 DAA
Protocol: as §1, §2

[3] = system: Ottochloa nodosa (OTTNO, slender panicgrass); experiment: Postemergence field weed control, OTTNO; details: 70 DAA
Protocol: as §1, §2

[4] = system: Paspalum conjugatum Bergius (PASCO, sour paspalum); experiment: Postemergence field weed control, PASCO; details: 70 DAA
Protocol: as §1, §2

[5] = system: Mikania cordata (MIKCO, African mile-a-minute); experiment: Postemergence field weed control, MIKCO; details: 28 DAA
Protocol: as §1, §2

[6] = system: Kochia scoparia (L.) Schrad. (KCHSC, kochia); experiment: Postemergence field weed control, KCHSC; details: 36 DAA
Protocol: as §1, §2

[7] = system: Conyza canadensis (L.) Cronq. (ERICA, horseweed); experiment: Postemergence field weed control, ERICA; details: 43 DAA
Protocol: as §1
(§3) Trial sites were located in various countries around the world, including Brazil, United States, Hungary, Indonesia and Malaysia, in non-crop and perennial tree crop plantations. Trials were conducted using normal small plot R&D trials using standard research methodology. Trial plots were between 2 to 4 meters (m) wide by 3 to 10 m long. All treatments were applied using a randomized complete block or factorial trial design with 3-4 replications per treatment. The trial sites had naturally occurring populations of weeds. The weed spectrum included, but was not limited to, scarlet pimpernel (Anagallis arvensis L., ANGAR), tropical carpetgrass (Axonopus compressus, AXOCO), Canada thistle (Cirsium arvense (L.) Scop., CIRAR), calopo (Calopogonium mucunoides, CLOMU), Bengal dayflower (Commelina benghalensis L., COMBE), field bindweed (Convolvus arvensis, CONAR), horseweed (Conyza canadensis (L.) Cronq., ERICA), kochia (Kochia scoparia (L.) Schrad., KCHSC), common mallow (Malva neglecta Wallr., MALNE), African mile-a-minute (Mikania cordata (Burm. f.) B. L., MIKCO), slender panicgrass (Ottochloa nodosa, OTTNO), paspalum (Paspalum conjugatum Bergius, PASCO), wild buckwheat (Polygonum convolvulus L., POLCO) and stinging nettle (Urtica dioica L., URTDI).
(§4) Treatments consisted of tank mixes of commercially available formulations of fluoroxypyr-meptyl ester (Starane® 200, Starane® 250, Starane® Ultra) and glyphosate (Roundup® isopropylammonium salt, Glizmax, Gliz) applied in water. The application volume varied from location to location but was from 100 to 450 liters per hectare (L/ha). Application was made using a precision gas backpack sprayer at pressures ranging from 150 to 300 kPA pressure using 2 to 4 m booms utilizing 4 to 8 flat fan nozzles to broadcast the treatments to the weeds and to the soil.
The treated and control plots were rated blind at various intervals after application. […]

[8] = system: Urtica dioica L. (URTDI, stinging nettle); experiment: Postemergence field weed control, URTDI; details: 28 DAA
Protocol: as §1, §2

[9] = system: Commelina benghalensis L. (COMBE, Bengal dayflower); experiment: Postemergence field weed control, COMBE; details: 28 DAA
Protocol: as §1, §2

[10] = system: Polygonum convolvulus L. (POLCO, wild buckwheat); experiment: Postemergence field weed control, POLCO; details: 14 DAA
Protocol: as §1, §3, §4
(§5) The treated and control plots were rated blind at various intervals after application. Ratings were based on Percent (%) Visual weed control, where 0 corresponds to no control and 100 corresponds to complete control.
(§6) Colby's equation was used to determine the herbicidal effects expected from the mixtures (Colby, S. R. Calculation of the synergistic and antagonistic response of herbicide combinations. Weeds 1967 15, 20-22).
(§7) The following equation was used to calculate the expected activity of mixtures containing two active ingredients, A and B:
(§8) A=observed efficacy of active ingredient A at the same concentration as used in the mixture;
(§9) B=observed efficacy of active ingredient B at the same concentration as used in the mixture.

[11] = system: Convolvus arvensis (CONAR, field bindweed); experiment: Postemergence field weed control, CONAR; details: 59 DAA
Protocol: as §1, §3, §4, §5, §6, §7, §8, §9

[12] = system: Malva neglecta Wallr. (MALNE, common mallow); experiment: Postemergence field weed control, MALNE; details: 14 DAA
Protocol: as §1, §2

[13] = system: Cirsium arvense (L.) Scop. (CIRAR, Canada thistle); experiment: Postemergence field weed control, CIRAR
Protocol: as §1, §3, §4, §5, §6, §7, §8, §9

[14] = system: Anagallis arvensis L. (ANGAR, scarlet pimpernel); experiment: Postemergence field weed control, ANGAR; details: 14 DAA
Protocol: as §1, §2

[15] = fluroxypyr-meptyl 53 gae/ha alone
[16] = fluroxypyr-meptyl 200 grams ae/ha alone
[17] = fluroxypyr-meptyl 200 grams ae/ha alone, Table 3
[18] = fluroxypyr-meptyl 400 grams ae/ha alone, Table 4
[19] = glyphosate-isopropylammonium 500 gae/ha alone
[20] = glyphosate-isopropylammonium 1000 grams ae/ha alone

SMILES: CCCCCCC(C)OC(=O)COc1nc(F)c(Cl)c(N)c1Cl (stereo not drawn) [Fluroxypyr-meptyl, fluoroxypyr-meptyl]
- AXOCO Obs (Observed weed control) [1, 15]: 0%
- CLOMU Obs (Observed weed control) [2, 15]: 69%
- OTTNO Obs (Observed weed control) [3, 15]: 0%
- PASCO Obs (Observed weed control) [4, 15]: 0%
- MIKCO Obs (Observed weed control) ([5]; fluroxypyr-meptyl 50 grams ae/ha alone): 42%
- KCHSC Obs (Observed weed control) ([6]; fluroxypyr-meptyl 67 grams ae/ha alone): 48%
- ERICA Obs (Observed weed control) ([7]; fluroxypyr-meptyl 140 grams ae/ha alone): 4%
- URTDI Obs (Observed weed control) [8, 16]: 10%
- COMBE Obs (Observed weed control) [9, 16]: 36%
- POLCO Obs (Observed weed control) [10, 17]: 52%
- POLCO Obs (Observed weed control) ([10]; fluroxypyr-meptyl 400 grams ae/ha alone, Table 3): 68%
- POLCO Obs (Observed weed control) [10, 18]: 60%
- CONAR Obs (Observed weed control) [11, 17]: 47%
- CONAR Obs (Observed weed control) ([11]; fluroxypyr-meptyl 300 grams ae/ha alone, Table 4): 50%
- CONAR Obs (Observed weed control) [11, 18]: 48%
- MALNE Obs (Observed weed control) [12, 16]: 48%
- CIRAR Obs (Observed weed control) ([13]; fluroxypyr-meptyl 300 grams ae/ha alone, 59 DAA): 3%
- CIRAR Obs (Observed weed control) ([13]; fluroxypyr-meptyl 400 grams ae/ha alone, 14 DAA): 7%
- ANGAR Obs (Observed weed control) ([14]; fluroxypyr-meptyl 400 grams ae/ha alone): 0%

SMILES: O=C(O)CNCP(=O)(O)O [Glyphosate-isopropylammonium, glyphosate-isopropylammonium]
- AXOCO Obs (Observed weed control) [1, 19]: 59%
- CLOMU Obs (Observed weed control) [2, 19]: 64%
- OTTNO Obs (Observed weed control) [3, 19]: 59%
- PASCO Obs (Observed weed control) [4, 19]: 59%
- MIKCO Obs (Observed weed control) ([5]; glyphosate-isopropylammonium 360 grams ae/ha alone): 58%
- KCHSC Obs (Observed weed control) ([6]; glyphosate-isopropylammonium 280 grams ae/ha alone): 23%
- ERICA Obs (Observed weed control) ([7]; glyphosate-isopropylammonium 560 grams ae/ha alone): 18%
- ERICA Obs (Observed weed control) ([7]; glyphosate-isopropylammonium 840 grams ae/ha alone): 73%
- URTDI Obs (Observed weed control) ([8]; glyphosate-isopropylammonium 1100 grams ae/ha alone): 24%
- COMBE Obs (Observed weed control) ([9]; glyphosate-isopropylammonium 710 grams ae/ha alone): 43%
- POLCO Obs (Observed weed control) ([10]; glyphosate-isopropylammonium 1000 grams ae/ha alone, Table 3): 25%
- POLCO Obs (Observed weed control) ([10]; glyphosate-isopropylammonium 1000 grams ae/ha alone, Table 4): 25%
- POLCO Obs (Observed weed control) ([10]; glyphosate-isopropylammonium 1500 grams ae/ha alone, Table 3): 60%
- CONAR Obs (Observed weed control) ([11]; glyphosate-isopropylammonium 1500 grams ae/ha alone, Table 4): 43%
- CONAR Obs (Observed weed control) ([11]; glyphosate-isopropylammonium 2000 grams ae/ha alone, Table 3): 55%
- CONAR Obs (Observed weed control) ([11]; glyphosate-isopropylammonium 2000 grams ae/ha alone, Table 4): 55%
- MALNE Obs (Observed weed control) [12, 20]: 14%
- CIRAR Obs (Observed weed control) ([13]; glyphosate-isopropylammonium 1000 grams ae/ha alone, 14 DAA): 58%
- CIRAR Obs (Observed weed control) ([13]; glyphosate-isopropylammonium 1000 grams ae/ha alone, 59 DAA): 58%
- ANGAR Obs (Observed weed control) [14, 20]: 43%
